Results published in PMC10394516, “The pharmacokinetic profile of brensocatib and its effect on pharmacodynamic biomarkers including NE, PR3, and CatG in various rodent species” (Frontiers in Pharmacology, 2023).
Like-named read-outs stand apart in the source and are kept apart here.

Assay: Plasma PK of brensocatib, BID vs QD oral dosing, Sprague Dawley rats
Type: in vivo
Conditions: both sexes, rat; for AUC(0-t): first 24 h
Description: A dose frequency study was performed in male and female mice (C57BL/6 & BALB/c) and in male and female rats (Sprague Dawley & Wistar) investigating twice daily (BID) versus once daily (QD) brensocatib administration.
Briefly, animals were weighed and randomized into different treatment groups. In total, three different dosing levels of brensocatib were tested in each species and strain; each QD dosing level was equivalent to 1.5-times the matching daily BID dose. For BID dosing, the second daily dose was administered 8-h post the morning dose. C57BL/6 mice were dosed either BID or QD for 7 consecutive days at 0/0, 0.5/0.75, 2/3, and 20/30 mg/kg/day (BID/QD). BALB/c mice were dosed for 7 consecutive days at 0/0, 0.2/0.3, 2/3, and 20/30 mg/kg/day (BID/QD). SD rats were dosed for 9 consecutive days at 0/0, 0.2/0.3, 2/3, and 20/30 mg/kg/day (BID/QD). Wistar rats were dosed for 7 consecutive days at 0/0, 0.2/0.3, 2/3, and 20/30 mg/kg/day (BID/QD).
For sparse PK analysis via LC-MS/MS, plasma was collected from animals during the first 24 h of dosing at prescribed timepoints. The timepoints included 1, 3, 8, and 24 h post initial dose for QD groups, and 1, 3, 8, 9, 11, and 24 h post initial dose for BID groups. Note that the 8- and 24-h plasma samples were prior to the afternoon dose for BID groups and prior to the second day dose for all groups, respectively. See section Quantification of Plasma Brensocatib Concentrations for details.
Blood was collected via the tail-vein technique and centrifuged to separate and collect the plasma. The resulting plasma samples were stored at −20°C or lower until LC-MS/MS analysis.
The plasma concentration of brensocatib was quantified by liquid chromatography, tandem mass spectrometry (LC-MS/MS), a Sciex API6500 mass spectrometer (SCIEX, Framingham, MA). Two brensocatib stock solutions were prepared, one for the preparation of the 8-point standard (STD) curve spiking solutions and the other for the preparation of the quantitative control spiking solutions (QCs) at three levels. The STD curve and QCs were prepared by 2% spiking from the spiking solutions into mouse or rat plasma. The samples were extracted using a protein precipitation method, where 10 µL of sample was mixed with 100 µL of internal standard working solution (100 ng/mL ^6C13-brensocatib in methanol), vortexed for 5 s, and centrifuged at 21,130 × g at 4°C for 15 min. The supernatant was mixed with an equal volume of water and 10 μL was injected into a Phenomenex Kinetex Biphenyl column (3.0 mm × 50 mm; 2.6 μm; 65°C; 0.8 mL/min) with an elution gradient consisting of mobile phase A (10 mM ammonium formate) and mobile phase B (methanol) over 2 min from 5% to 95% B. The mass spectrometer was equipped with an atmospheric-pressure chemical ionization source operating in positive mode.
Individual plasma concentrations were plotted and the area under the curve (AUC) was calculated using the trapezoid method. The elimination rate constant (k e ) was calculated as the negative natural log of the plasma concentration over time (Eq. 1) starting at the max concentration (C max) after the most recent dose to the last measurable plasma concentration between doses. The calculated k e was used to define the half-life (t 1/2 ) based on Eq. 2; where 0.693 is the natural log of 2 and assumes a first-order reaction. ke=−ln∆C/∆t (1) t1/2=0.693/ke (2)

half-life (Sprague Dawley, Wistar, oral, rats (both strains), across BID and QD regimens, sparse PK, read-out: half-life (overall) (converted)): ~8 h
AUC(0-t) (Sprague-Dawley, SD rats, oral BID, 0.2 mg/kg/day, read-out: AUC0–24h): 124 ± 81 ng·h/mL
AUC(0-t) (Sprague-Dawley, SD rats, oral BID, 0.2 mg/kg/day, read-out: AUC(0–24)): 0.29 ± 0.19 µM·h
AUC(0-t) (Sprague-Dawley, SD rats, oral BID, 2 mg/kg/day, read-out: AUC0–24h): 4730 ± 421 ng·h/mL
AUC(0-t) (Sprague-Dawley, SD rats, oral BID, 2 mg/kg/day, read-out: AUC(0–24)): 11.2 ± 1 µM·h
AUC(0-t) (Sprague-Dawley, SD rats, oral BID, 20 mg/kg/day, read-out: AUC0–24h): 72600 ng·h/mL
AUC(0-t) (Sprague-Dawley, SD rats, oral BID, 20 mg/kg/day, read-out: AUC(0–24)): 173 ± 8.09 µM·h
AUC(0-t) (Sprague-Dawley, SD rats, oral QD, 0.3 mg/kg/day, read-out: AUC0–24h): 269 ± 128 ng·h/mL
AUC(0-t) (Sprague-Dawley, SD rats, oral QD, 0.3 mg/kg/day, read-out: AUC(0–24)): 0.64 ± 0.3 µM·h
AUC(0-t) (Sprague-Dawley, SD rats, oral QD, 3 mg/kg/day, read-out: AUC0–24h): 11100 ng·h/mL
AUC(0-t) (Sprague-Dawley, SD rats, oral QD, 3 mg/kg/day, read-out: AUC(0–24)): 26.39 ± 0.25 µM·h
AUC(0-t) (Sprague-Dawley, SD rats, oral QD, 30 mg/kg/day, read-out: AUC0–24h): 104000 ng·h/mL
AUC(0-t) (Sprague-Dawley, SD rats, oral QD, 30 mg/kg/day, read-out: AUC(0–24)): 248 ± 59.5 µM·h
half-life (Sprague-Dawley, po, 0.2 mg/kg/day, SD rats, oral BID, 0.2 mg/kg/day, evening dose, read-out: t1/2, PM dose (converted)): 0.55 ± 0.02 h
half-life (Sprague-Dawley, po, 0.3 mg/kg/day, SD rats, oral QD, 0.3 mg/kg/day, read-out: t1/2, AM dose (converted)): 5.36 ± 2.38 h
half-life (Sprague-Dawley, po, 2 mg/kg/day, SD rats, oral BID, 2 mg/kg/day, evening dose, read-out: t1/2, PM dose (converted)): 7.42 ± 1.16 h
half-life (Sprague-Dawley, po, 2 mg/kg/day, SD rats, oral BID, 2 mg/kg/day, morning dose, read-out: t1/2, AM dose (converted)): 13.5 ± 9.16 h
half-life (Sprague-Dawley, po, 3 mg/kg/day, SD rats, oral QD, 3 mg/kg/day, read-out: t1/2, AM dose (converted)): 4.46 ± 0.37 h
half-life (Sprague-Dawley, po, 20 mg/kg/day, SD rats, oral BID, 20 mg/kg/day, evening dose, read-out: t1/2, PM dose (converted)): 4.03 ± 0.44 h
half-life (Sprague-Dawley, po, 20 mg/kg/day, SD rats, oral BID, 20 mg/kg/day, morning dose, read-out: t1/2, AM dose (converted)): 14.1 ± 1.55 h
half-life (Sprague-Dawley, po, 30 mg/kg/day, SD rats, oral QD, 30 mg/kg/day, read-out: t1/2, AM dose (converted)): 3.88 ± 0.04 h
SMILES: Cn1c(=O)oc2ccc(-c3ccc(C[C@@H](C#N)NC(=O)[C@@H]4CNCCCO4)cc3)cc21 [brensocatib]
